Article PMC9403976, “Elucidating the path to Plasmodium prolyl-tRNA synthetase inhibitors that overcome halofuginone resistance” (Nature Communications, 2022)
“And” between values parts separate entries of the source, which are not always exact repeats. Equal values may be shown once. Read-outs that look alike come from different tables or passages of the source.

Columns and labels:
HT-PfcProRS = HT-PfcProRS (Plasmodium falciparum, UniProt Q8I5R7); assay: biochemical
Description: (§1) A Multidrop Combi Reagent Dispenser (Thermo Fisher Scientific) was used to dispense 20 μL of 2× protein solution into each well. […] Plates were mixed on an Ika MTS 2/4 Digital Microtiter Shaker at 750 rpm for 2 min, centrifuged at 1000 × g at 25 °C for 1 min, and allowed to equilibrate for 2 h at room temperature before TR-FRET measurements were taken.
(§2) PRISM (V. 8.4.3–9.1.0, GraphPad) was used to perform non-linear regression analysis (log(inhibitor) vs. response–Variable slope (four parameters)), plot dose-response curves, and calculate IC50 values. The Cheng–Prusoff equation was used to convert IC50 to KD values (Eq. (4)):4 KD=IC50/1+[MAT379]/KD,MAT379

HT-HsProRS [1] = target: T1, HT-HsProRS (Homo sapiens, UniProt P07814); conditions: replicates 1-4
T1 sequence (P07814 996-1512): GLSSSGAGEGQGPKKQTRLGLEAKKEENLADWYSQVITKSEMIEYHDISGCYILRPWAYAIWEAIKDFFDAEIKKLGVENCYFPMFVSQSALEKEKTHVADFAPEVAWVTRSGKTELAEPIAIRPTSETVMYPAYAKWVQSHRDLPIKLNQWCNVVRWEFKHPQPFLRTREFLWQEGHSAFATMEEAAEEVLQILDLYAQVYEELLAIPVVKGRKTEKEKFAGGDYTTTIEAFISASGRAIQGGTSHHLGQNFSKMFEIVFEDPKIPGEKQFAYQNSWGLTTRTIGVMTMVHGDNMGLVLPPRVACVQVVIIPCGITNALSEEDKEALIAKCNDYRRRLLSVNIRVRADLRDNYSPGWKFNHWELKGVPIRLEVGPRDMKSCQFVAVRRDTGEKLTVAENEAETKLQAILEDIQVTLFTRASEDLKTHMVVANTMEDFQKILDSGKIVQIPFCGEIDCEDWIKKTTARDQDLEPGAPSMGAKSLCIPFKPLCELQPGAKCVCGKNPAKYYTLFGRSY
Description: as §1, §2

HT-HsProRS [2] = target: T1, HT-HsProRS; assay: biochemical
Description: as §1, §2

HsProRS = HsProRS (Homo sapiens, UniProt P07814); conditions: ref Heacock et al.; cited from earlier work
[3] = test system: P. falciparum Dd2-2D4 NCP26 selections S1-3; assay: ABS growth assay on bulk populations and clones from NCP26 resistance selections S1-3; type: cell-based, Plasmodium falciparum; conditions: Plasmodium falciparum
Description: In short, P. falciparum erythrocytic-stage parasites at 1% parasitemia and 1% hematocrit in RPMI + 0.5% Albumax were seeded at 40 μL/well in 384-well plates with test compounds in triplicate, dose-response format with 10 μM dihydroartemisinin as a kill-control and blank (no compound) wells as a growth-control. […] After 72 h, growth was quantified by measuring fluorescence (Molecular Devices SpectraMax iD5) following SYBR Green 1 staining. Data were analyzed in Excel and plotted in PRISM (V. 8.4.3–9.1.0, GraphPad).
This cycle was repeated for ~50 generations (~100 days), corresponding to 5–6 cycles of drug pressure.
Clonal parasites were isolated from each selection flask by limiting dilution of ring stage parasites in 96-well plates to an average of 0.8 and 0.2 parasites per well.

P. falciparum Dd2-2D4 = assay: P. falciparum asexual blood stage (ABS) growth assay, SYBR Green, 72 h, wild-type parasites; type: cell-based, Plasmodium falciparum; conditions: Plasmodium falciparum; cell line Dd2-2D4 (parent); read-out: EC50 [nM] mean

Chain of HT-PfcProRS (Q8I5R7 249-746): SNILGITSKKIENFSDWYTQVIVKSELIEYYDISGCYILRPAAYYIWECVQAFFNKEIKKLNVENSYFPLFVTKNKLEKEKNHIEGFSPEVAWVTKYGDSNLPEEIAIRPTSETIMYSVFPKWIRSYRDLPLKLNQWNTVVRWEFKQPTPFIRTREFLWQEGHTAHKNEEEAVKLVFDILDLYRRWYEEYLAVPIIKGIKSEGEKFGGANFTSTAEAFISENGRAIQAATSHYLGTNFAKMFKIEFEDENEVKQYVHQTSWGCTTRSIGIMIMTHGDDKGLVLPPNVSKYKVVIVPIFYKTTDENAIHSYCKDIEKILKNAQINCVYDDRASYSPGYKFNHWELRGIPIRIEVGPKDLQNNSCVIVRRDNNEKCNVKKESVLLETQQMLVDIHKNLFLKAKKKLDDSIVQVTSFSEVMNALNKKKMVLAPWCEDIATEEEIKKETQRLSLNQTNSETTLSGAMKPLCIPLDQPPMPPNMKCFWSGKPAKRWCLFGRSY

With `Nc1ncnc2c1ncn2[C@@H]1O[C@H](COP(=O)(O)OP(=O)(O)OP(=O)(O)O)[C@@H](O)[C@H]1O` [ATP] the Kd (HT-PfcProRS) was 892000 nM, the “ATP - […] HT-HsProRS - 1000nM MAT379” value (HT-HsProRS [1]; Log[Substrate] (M) -1.301) was 1.53E-02 and -2.24E-04 and 3.02E-02 and 2.38E-02 and the “ATP - […] HT-HsProRS - 1000nM MAT379” value (HT-HsProRS [1]; Log[Substrate] (M) -1.602) was 2.53E-02 and 6.72E-02 and 4.62E-03 and 4.29E-02. The “ATP - […] HT-HsProRS - 1000nM MAT379” value (HT-HsProRS [1]; Log[Substrate] (M) -1.903) was 3.94E-02 and 5.54E-02 and 1.78E-02 and 4.02E-02, the “ATP - […] HT-HsProRS - 1000nM MAT379” value (HT-HsProRS [1]; Log[Substrate] (M) -2.204) was -1.77E-02 and 2.78E-02 and -2.71E-02 and the “ATP - […] HT-HsProRS - 1000nM MAT379” value (HT-HsProRS [1]; Log[Substrate] (M) -2.505) was 4.93E-03 and 1.38E-02 and 2.29E-03 and -1.57E-02. For the same compound, the “ATP - […] HT-HsProRS - 1000nM MAT379” value (HT-HsProRS [1]; Log[Substrate] (M) -2.806) was 3.39E-02 and 3.33E-02 and 1.97E-02 and 4.46E-02, the “ATP - […] HT-HsProRS - 1000nM MAT379” value (HT-HsProRS [1]; Log[Substrate] (M) -3.107) was 5.86E-02 and 6.01E-02 and 5.77E-02 and 4.19E-02 and the “ATP - […] HT-HsProRS - 1000nM MAT379” value (HT-HsProRS [1]; Log[Substrate] (M) -3.408) was 1.19E-01 and 8.31E-02 and 6.99E-02. The “ATP - […] HT-HsProRS - 1000nM MAT379” value (HT-HsProRS [1]; Log[Substrate] (M) -3.709) was 1.24E-01 and 1.53E-01 and 1.47E-01 and 1.40E-01, the “ATP - […] HT-HsProRS - 1000nM MAT379” value (HT-HsProRS [1]; Log[Substrate] (M) -4.010) was 2.51E-01 and 2.58E-01 and 2.34E-01 and 2.36E-01 and the “ATP - […] HT-HsProRS - 1000nM MAT379” value (HT-HsProRS [1]; Log[Substrate] (M) -4.311) was 3.56E-01 and 3.10E-01 and 3.57E-01 and 3.37E-01. For the same compound, the “ATP - […] HT-HsProRS - 1000nM MAT379” value (HT-HsProRS [1]; Log[Substrate] (M) -4.612) was 2.50E-01 and 3.45E-01 and 2.88E-01 and 2.85E-01, the “ATP - […] HT-HsProRS - 1000nM MAT379” value (HT-HsProRS [1]; Log[Substrate] (M) -4.913) was 3.70E-01 and 3.71E-01 and 3.06E-01 and 3.78E-01 and the “ATP - […] HT-HsProRS - 1000nM MAT379” value (HT-HsProRS [1]; Log[Substrate] (M) -5.214) was 3.77E-01 and 4.09E-01 and 3.64E-01 and 3.70E-01. The “ATP - […] HT-HsProRS - 1000nM MAT379” value (HT-HsProRS [1]; Log[Substrate] (M) -5.515) was 4.23E-01 and 4.03E-01 and 4.00E-01 and 4.38E-01, the “ATP - […] HT-HsProRS - 1000nM MAT379” value (HT-HsProRS [1]; Log[Substrate] (M) -5.816) was 4.03E-01 and 4.66E-01 and 3.88E-01 and 4.49E-01 and the “ATP - […] HT-HsProRS - 1000nM MAT379” value (HT-HsProRS [1]; Log[Substrate] (M) -6.118) was 4.47E-01 and 4.50E-01 and 4.51E-01 and 4.46E-01. The “ATP - […] HT-HsProRS - 1000nM MAT379” value (HT-HsProRS [1]; Log[Substrate] (M) -6.419) was 4.22E-01 and 4.52E-01 and 3.59E-01 and 4.01E-01, the Kd (HT-HsProRS [2]; HsProRS (KD [nM]) mean, substrates, substrate KD, (-)) was 67100 nM and the Kd (HT-HsProRS [2]; KD of substrate, […] HT-HsProRS, 1000 nM MAT379) was 30600 nM. The Km (HsProRS) was 500 µM.

In the case of `C[C@H]1[C@@H](O)O[C@@H]2O[C@@]3(C)CC[C@H]4[C@H](C)CC[C@@H]1[C@@]24OO3` [DHA, dihydroartemisinin, reference compound], the EC50 ([3]; DD2, cell line S1 - Clone A8, read-out: EC50 [nM] mean) is reported as 3.4 nM, the EC50 ([3]; DD2, cell line S1 - bulk population, read-out: EC50 [nM] mean) is reported as 4.5 nM and the EC50 ([3]; DD2, cell line S2 - Clone A3, read-out: EC50 [nM] mean) is reported as 2 nM. The EC50 ([3]; DD2, cell line S2 - Clone B9, read-out: EC50 [nM] mean) was 10.1 nM, the EC50 ([3]; DD2, cell line S2 - Clone C5, read-out: EC50 [nM] mean) was 3.48 nM and the EC50 ([3]; DD2, cell line S2 - bulk population, read-out: EC50 [nM] mean) was 3.55 nM. The EC50 ([3]; DD2, cell line S3 - Clone B3, read-out: EC50 [nM] mean) was 3.51 nM, the EC50 ([3]; DD2, cell line S3 - Clone B7, read-out: EC50 [nM] mean) was 3.12 nM and the EC50 ([3]; DD2, cell line S3 - bulk population, read-out: EC50 [nM] mean) was 3.44 nM. It also gave an EC50 ([3]; DD2, read-out: EC50 [nM] mean, cell line S3 - Clone B2) of 8.34 nM and an EC50 (P. falciparum Dd2-2D4) of 4.95 nM.
